Blank lines part the entries; values can stand above or below the compound they belong to.
Assays:
Experiment in all cases: PNPG hydrolysis, absorbance at […] nm
Type in all cases: biochemical
[1] = molecular target: T1, α-glucosidase; settings: PNPG substrate, 0.2 U/mL enzyme, pH 6.8, 10 min
T1 construct: gene MAL12; pNPG assay at pH 6.8 as usual for the yeast enzyme

[2] = tested on: T1, α-glucosidase; settings: PNPG substrate, 0.2 U/mL enzyme, pH 6.8, 10 min; unreliable: text b23 swaps the parishin B and C values
[3] = tested on: T1, α-glucosidase; settings: PNPG substrate, 0.2 U/mL enzyme, pH 6.8, 10 min; unreliable: text b23 swaps the parishin B and C values; remark: listed apart in the source

Parishin A [1]: 0.24 ± 0.05 mg/mL
Structure (SMILES): O=C(CC(O)(CC(=O)OCc1ccc(O[C@@H]2O[C@H](CO)[C@@H](O)[C@H](O)[C@H]2O)cc1)C(=O)OCc1ccc(O[C@@H]2O[C@H](CO)[C@@H](O)[C@H](O)[C@H]2O)cc1)OCc1ccc(O[C@@H]2O[C@H](CO)[C@@H](O)[C@H](O)[C@H]2O)cc1 [Parishin A]

Parishin B [2]: 0.13 ± 0.03 mg/mL
Structure (SMILES): O=C(O)CC(O)(CC(=O)OCc1ccc(O[C@@H]2O[C@H](CO)[C@@H](O)[C@H](O)[C@H]2O)cc1)C(=O)OCc1ccc(O[C@@H]2O[C@H](CO)[C@@H](O)[C@H](O)[C@H]2O)cc1 (stereo partly drawn) [Parishin B]

Parishin C [3]: 0.19 ± 0.03 mg/mL
Structure (SMILES): O=C(CC(O)(CC(=O)OCc1ccc(O[C@@H]2O[C@H](CO)[C@@H](O)[C@H](O)[C@H]2O)cc1)C(=O)O)OCc1ccc(O[C@@H]2O[C@H](CO)[C@@H](O)[C@H](O)[C@H]2O)cc1 [Parishin C]

Parishin E [1]: 0.54 ± 0.04 mg/mL
Structure (SMILES): O=C(O)CC(O)(CC(=O)OCc1ccc(O[C@@H]2O[C@H](CO)[C@@H](O)[C@H](O)[C@H]2O)cc1)C(=O)O (stereo partly drawn) [Parishin E]

GAS [1]: 1.23 ± 0.09 mg/mL
Structure (SMILES): OCc1ccc(O[C@@H]2O[C@H](CO)[C@@H](O)[C@H](O)[C@H]2O)cc1 [GAS]

HBA [1]: 0.16 ± 0.03 mg/mL
Structure (SMILES): OCc1ccc(O)cc1 [HBA]
